According to the NIST ThermoML archive (doi:10.1016/j.fluid.2007.01.042):
± gives the expanded uncertainty stated by the source. Blank lines part the entries; values can stand above or below the molecule they belong to.

Conditions: Liquid, Ebulliometric method (Recirculating still)

Structure (SMILES): Cc1cccc(C)c1 [1,3-dimethylbenzene]
- vapor or sublimation pressure (380.51 K): 40 ± 0.09 kPa
- vapor or sublimation pressure (389.66 K): 53.33 ± 0.11 kPa
- vapor or sublimation pressure (397.13 K): 66.66 ± 0.14 kPa
- vapor or sublimation pressure (403.51 K): 79.99 ± 0.17 kPa
- vapor or sublimation pressure (409.09 K): 93.32 ± 0.19 kPa

- vapor or sublimation pressure (344.18 K): 40 ± 0.09 kPa
- vapor or sublimation pressure (352.8 K): 53.33 ± 0.11 kPa
- vapor or sublimation pressure (359.85 K): 66.66 ± 0.14 kPa
- vapor or sublimation pressure (365.87 K): 79.99 ± 0.17 kPa
- vapor or sublimation pressure (371.15 K): 93.32 ± 0.19 kPa
Structure (SMILES): CC1CCCCC1 [methylcyclohexane]

- vapor or sublimation pressure (401.71 K): 40 ± 0.09 kPa
- vapor or sublimation pressure (411.34 K): 53.33 ± 0.11 kPa
- vapor or sublimation pressure (419.2 K): 66.66 ± 0.14 kPa
- vapor or sublimation pressure (425.9 K): 79.99 ± 0.17 kPa
- vapor or sublimation pressure (431.77 K): 93.32 ± 0.19 kPa
Structure (SMILES): Cc1ccc(Cl)cc1 [4-chlorotoluene]

- vapor or sublimation pressure (377.54 K): 40 ± 0.09 kPa
- vapor or sublimation pressure (386.69 K): 53.33 ± 0.11 kPa
- vapor or sublimation pressure (394.14 K): 66.66 ± 0.14 kPa
- vapor or sublimation pressure (400.51 K): 79.99 ± 0.17 kPa
- vapor or sublimation pressure (406.12 K): 93.32 ± 0.19 kPa
Structure (SMILES): CCc1ccccc1 [ethylbenzene]

- vapor or sublimation pressure (324.44 K): 40 ± 0.04 kPa
- vapor or sublimation pressure (331.9 K): 53.33 ± 0.05 kPa
- vapor or sublimation pressure (337.99 K): 66.66 ± 0.06 kPa
- vapor or sublimation pressure (343.18 K): 79.99 ± 0.07 kPa
- vapor or sublimation pressure (347.7 K): 93.32 ± 0.08 kPa
Structure (SMILES): CCOC(C)=O [ethyl acetate]

- vapor or sublimation pressure (325.6 K): 40 ± 0.04 kPa
- vapor or sublimation pressure (333.56 K): 53.33 ± 0.04 kPa
- vapor or sublimation pressure (340.06 K): 66.66 ± 0.05 kPa
- vapor or sublimation pressure (345.61 K): 79.99 ± 0.06 kPa
- vapor or sublimation pressure (350.5 K): 93.32 ± 0.06 kPa
Structure (SMILES): c1ccccc1 [benzene]

- vapor or sublimation pressure (342.77 K): 40 ± 0.05 kPa
- vapor or sublimation pressure (351.08 K): 53.33 ± 0.07 kPa
- vapor or sublimation pressure (357.85 K): 66.66 ± 0.08 kPa
- vapor or sublimation pressure (363.64 K): 79.99 ± 0.1 kPa
- vapor or sublimation pressure (368.7 K): 93.32 ± 0.11 kPa
Structure (SMILES): CCCCCCC [heptane]

- vapor or sublimation pressure (325.65 K): 40 ± 0.04 kPa
- vapor or sublimation pressure (333.77 K): 53.33 ± 0.04 kPa
- vapor or sublimation pressure (340.43 K): 66.66 ± 0.05 kPa
- vapor or sublimation pressure (346.11 K): 79.99 ± 0.06 kPa
- vapor or sublimation pressure (351.12 K): 93.32 ± 0.06 kPa
Structure (SMILES): C1CCCCC1 [cyclohexane]

Structure (SMILES): ClC(Cl)(Cl)Cl [tetrachloromethane]
- vapor or sublimation pressure (322.04 K): 40 ± 0.04 kPa
- vapor or sublimation pressure (330.08 K): 53.33 ± 0.04 kPa
- vapor or sublimation pressure (336.65 K): 66.66 ± 0.05 kPa
- vapor or sublimation pressure (342.21 K): 79.99 ± 0.06 kPa
- vapor or sublimation pressure (347.09 K): 93.32 ± 0.06 kPa

- vapor or sublimation pressure (398.81 K): 40 ± 0.05 kPa
- vapor or sublimation pressure (408.41 K): 53.33 ± 0.06 kPa
- vapor or sublimation pressure (416.25 K): 66.66 ± 0.08 kPa
- vapor or sublimation pressure (422.91 K): 79.99 ± 0.09 kPa
- vapor or sublimation pressure (428.76 K): 93.32 ± 0.11 kPa
Structure (SMILES): Cc1ccccc1Cl [2-chlorotoluene]
